Legend:
HCC1143 = experiment: Cell death and proliferation; type: cell-based, human; settings: 0.1 μM Ola, 4.8 μM AsiDNA; sensitive = difference in % dead cells higher than two-fold
Protocol: (§1) Efficacy of Ola and AsiDNA was assessed by measuring cell death and proliferation in 12BC cell lines including 4BRCA-mutated cell lines (FIGS. 4A and B and FIG. 5). In addition, HeLa cells silenced for BRCA1 or BRCA2 genes were used as a control of BRCA mutation factor and 3 immortalized mammary cell lines (MCF10A, MCF12A and 184B5) as non-tumor controls. The concentration of the drugs (0.1 μM for Ola and 4.8 μM for AsiDNA) were chosen based on the 75-80% survival in the BC227 BRCA2^−/− mutant. […] Ola and AsiDNA treatments had no effect on the three control non-tumor cell lines.
(§2) Cells were grown according to the supplier's instructions.

HCC70 = experiment: Cell death and proliferation; type: cell-based, human; settings: 0.1 μM Ola, 4.8 μM AsiDNA; sensitive = difference in % dead cells higher than two-fold
Protocol: as §1, §2

MCF7 = experiment: Cell death and proliferation; type: cell-based, human; settings: 0.1 μM Ola, 4.8 μM AsiDNA; sensitive = difference in % dead cells higher than two-fold
Protocol: as §1, §2

BT20 = experiment: Cell death and proliferation; type: cell-based, human; settings: 0.1 μM Ola, 4.8 μM AsiDNA; sensitive = difference in % dead cells higher than two-fold
Protocol: as §1, §2

2 non-tumor cell lines = experiment: Combined treatment survival in non-tumor cell lines (FIG. 6, 12); type: cell-based, human; settings: AsiDNA 4.8 μM, olaparib 0.1 and 1 μM; 6 days
Protocol: Efficacy of AsiDNA (4. 8 μM), olaparib (0, 0.1 and 1 μM) or both was monitored 6 days after treatment by cell counting after trypan blue labeling. (A) Percentage of living cells relative to non-treated condition (NT). (B) Percentage of dead cells. Data are expressed as mean+Sc.D. of at least 2 independent experiments. Dotted lines indicate the calculated cell survivals if additivity between AsiDNA and olaparib.
(A) Percentage of living cells relative to non-treated condition (NT). (B) Percentage of dead cells. Dotted lines indicate the calculated cell survivals if additivity between AsiDNA and veliparib.
The inventors monitored cell survival to combined treatment of 3 BC and 2 non-tumor cell lines with different sensitivities to Ola and AsiDNA alone (FIG. 6; Table 1).

HCC38 = experiment: Cell survival, trypan blue counting; type: cell-based, human; settings: 4.80 μM of AsiDNA and/or 0.1 μM of Ola; day 6 after treatment
Protocol: (§3) Cells were grown according to the supplier's instructions. Cell lines were maintained at 37° C. in a humidified atmosphere at 5% CO2.
(§4) AsiDNA or PARPi cytotoxicity was measured by relative survival and cell death quantification. Adherent cells were seeded in 24-well culture plates at appropriate densities and incubated 24 hours at 37° C. before AsiDNA and/or PARPi addition. Cells were harvested day 6aftertreatment, stained with 0.4% trypan blue (Sigma Aldrich, Saint-Louis, USA) and counted with a Burker chamber. Cell survival was calculated as ratio of living treated cells to living mock-treated cells. Cell death was calculated as the number of dead cells on the total number of counted cells. Additivity of the toxicity was calculated by the product of cell survivals to AsiDNA and cell survivals to PARPi.

HeLa BRCA1 SX = experiment: Cell survival, trypan blue counting; type: cell-based, human; settings: 4.80 μM of AsiDNA and/or 0.1 μM of Ola; day 6 after treatment
Protocol: as §3, §4

[1] = system: MD227 human breast cancer cell lines grafted in the fat pad; experiment: In vivo test on tumor growth, breast cancer xenograft; settings: DT01 2.5 mg intratumoral and 2.5 mg subcutaneous daily for 5 days; Olaparib 200 mg/kg/day per os, 5 daily sessions; or both
Protocol: Nude mice with xenografted MD227 human breast cancer cell lines grafted in the fat pad were treated by intratumoral administration of DT01 (5 mg/day) and Olaparib (200 mg/kg/day). Tumor growth was monitored (time zero: beginning of treatment). Eight to ten animals were treated per group (group 1: vehicle injection (grey line); group 2: DT01 (black dotted line); group 3: Olaparib (grey dotted line); group 4; DT01+ Olaparib (black line)). Treatment was administered 5 following days.
Human breast cancer xenograft tumors were obtained by injecting 4.10^6 tumor cells into the fat pad of adult female nude mice (Janvier, Le Genest Saint Isle, France). The animals were housed in the laboratory for at least 1 week before starting experiments. There were six animals per cage under controlled conditions of light and dark cycles (12 h: 12 h), relative humidity (55%), and temperature (21° C.). Food and tap water were available ad libitum. […] Mice were weighed every week and followed up for 280 days. For ethical reasons, the animals were sacrificed when tumors reached 1500 mm^3. The Local Committee on Ethics of Animal Experimentation approved all experiments.

HeLa CTL SX = experiment: Cell survival, trypan blue counting; type: cell-based, human; settings: 4.80 μM of AsiDNA and/or 0.1 μM of Ola; day 6 after treatment
Protocol: as §3, §4

53BP1 and Rad51 foci = 53BP1 and Rad51 foci immunostaining in MDAMB231 cells; type: cell-based, human; settings: MDAMB231, 24 h, 16 μM AsiDNA +/− 1 μM olaparib
Protocol: FIG. 9: Effect of the combined treatment AsiDNA and olaparib on DNA repair. Representative images of γH2AX (red) and Rad51 or 53BP1 (green) foci in MDAMB231 (A) or MCF10 (C) cells treated 24 h with Ola and/or AsiDNA. (B, D) Numbering of 53BP1 and Rad51 foci in 100 MDAMB231 cells (B) or MCF10A cells (D) 24 h after Ola and/or AsiDNA treatment. Red bars represent the mean values. (E, F) DNA damage monitored by alkaline comet assay 24 h after Ola and/or AsiDNA treatment in MDAMB231 (E) or MCF10A (F) cells. ns: not significant; *: p<0.05; ****: p<0.0001.
FIG. 10: AsiDNA inhibits irradiation-induced 53BP1 foci. Numbering of 53BP1 foci in 100 MDAMB231 cells 2 h after 10Gy irradiation, 22 h after prior treatment with AsiDNA and/or Ola. Red bars represent the mean values. *: p<0.05; **: p<0.01; ****: p<0.0001.
For immunostaining, MDAMB231 cells are seeded on cover slips (Menzel, Braunschweig, Germany) at a concentration of 5×10^5 cells and incubated at 37° C. during 1 day. Cells are then treated with 16 μM AsiDNA+/−1 μM olaparib. 24 h after treatment, cells are fixed for 20 min in 4% paraformaldehyde/Phosphate-Buffered Saline (PBS 1×), permeabilized in 0.5% Triton X-100 for 10 min, blocked with 2% bovine serum albumin/PBS 1× and incubated with primary antibody for 1 h at 4° C. […]

SK28 Lsh DNA-PKcs = experiment: Cell survival, trypan blue counting; type: cell-based, human; settings: 4.80 μM of AsiDNA and/or 0.1 μM of Ola; day 6 after treatment
Protocol: as §3, §4

MDAMB231 = experiment: Cell survival, trypan blue counting; type: cell-based, human
Protocol: as §2

BC173 = experiment: Cell survival, trypan blue counting; type: cell-based, human
Protocol: as §2

MDAMB468 = experiment: Cell survival, trypan blue counting; type: cell-based, human
Protocol: as §2

HCC1187 = experiment: Cell survival, trypan blue counting; type: cell-based, human
Protocol: as §2

SK28 Lsh CTL = experiment: Cell survival, trypan blue counting; type: cell-based, human; settings: 4.80 μM of AsiDNA and/or 0.1 μM of Ola; day 6 after treatment
[2] = system: 3 immortalized mammary cell lines (MCF10A, MCF12A and 184B5); experiment: Cell death and proliferation in non-tumor controls; type: cell-based, human; settings: 0.1 μM for Ola and 4.8 μM for AsiDNA
Protocol: as §1, §2

Hep2 = experiment: Cell survival, trypan blue counting; type: cell-based, human; settings: 4.80 μM of AsiDNA and/or 0.1 μM of Ola; day 6 after treatment
Protocol: as §3, §4

Jurkat = experiment: Cell survival, trypan blue counting; type: cell-based, human; settings: 4.80 μM of AsiDNA and/or 0.1 μM of Ola; day 6 after treatment
Protocol: as §3, §4

HCT116 = experiment: Cell survival, trypan blue counting; type: cell-based, human; settings: 4.80 μM of AsiDNA and/or 0.1 μM of Ola; day 6 after treatment
Protocol: as §3, §4

[3] = 0.1 μM Ola, 4.8 μM AsiDNA, sensitive = difference in % dead cells higher than two-fold
[4] = 4.80 μM of AsiDNA and/or 0.1 μM of Ola, day 6 after treatment

For `O=C(c1cc(Cc2n[nH]c(=O)c3ccccc23)ccc1F)N1CCN(C(=O)C2CC2)CC1` [Olaparib, 4-[(3-[(4-cyclopropylcarbonyl)piperazin-4-yl]carbonyl)-4-fluorophenyl]methyl(2H)-phthalazin-1-one], which sensitivity to treatment (HCC1143) is on record?
The sensitivity to treatment was “sensitive only to AsiDNA”.

And the sensitivity to treatment (HCC70)?
The sensitivity to treatment was “resistant to both treatments”.

And the sensitivity to treatment (MCF7)?
Its sensitivity to treatment is “resistant to both treatments”.

What about the sensitivity to treatment (BT20) of the same compound?
Its sensitivity to treatment is “resistant to both treatments”.

And the “sensitivity to combined and single treatments” value (2 non-tumor cell lines)?
The value was “insensitive”.

What about the “Survival (%/NT)” value (HCC38) of the same compound?
Its value is 66.7 %/NT.

And the “Survival (%/NT)” value (HeLa BRCA1 SX)?
The value was 71.4 %/NT.

And the “local skin toxicity or systemic toxicity” value [1]?
Its value is “No local skin toxicity or systemic toxicity”.

What about the “Survival (%/NT)” value (HeLa CTL SX) of the same compound?
The value was 105.1 %/NT.

What about the “γH2AX, 53BP1 and Rad51 foci in the absence of DNA damaging treatment” value (53BP1 and Rad51 foci) of the same compound?
Its value is “induces the accumulation of DSBs”.

What about the “Survival (%/NT)” value (SK28 Lsh DNA-PKcs) of the same compound?
Its value is 80.9 %/NT.

What about the sensitivity to treatment (MDAMB231; [3]) of the same compound?
The sensitivity to treatment was “resistant to both treatments”.

What about the “Survival (%/NT)” value (MDAMB231; [4]) of the same compound?
Its value is 90.9 %/NT.

What about the IC20 (MDAMB231; Homo sapiens, MDA-MB-231, MDAMB231, PARPi dose giving 80% survival) of the same compound?
Its IC20 is 1000 nM.

And the IC50 (MDAMB231; Homo sapiens, MDA-MB-231, MDAMB231, PARPi dose resulting in 50% survival)?
The IC50 was 3700 nM.

What about the sensitivity to treatment (BC173; [3]) of the same compound?
The sensitivity to treatment was “sensitive only to AsiDNA”.

What about the “Survival (%/NT)” value (BC173; [4]) of the same compound?
Its value is 94.4 %/NT.

And the sensitivity to treatment (MDAMB468; [3])?
Its sensitivity to treatment is “sensitive to both treatments”.

What about the “Survival (%/NT)” value (MDAMB468; [4]) of the same compound?
The value was 68.3 %/NT.

What about the sensitivity to treatment (HCC1187; [3]) of the same compound?
The sensitivity to treatment was “sensitive only to Ola”.

And the “Survival (%/NT)” value (HCC1187; [4])?
The value was 61.5 %/NT.

What about the “Survival (%/NT)” value (SK28 Lsh CTL) of the same compound?
Its value is 80.6 %/NT.

What about the “effect on cell death and proliferation” value [2] of the same compound?
The value was “no effect”.

What about the “Survival (%/NT)” value (Hep2) of the same compound?
The value was 101 %/NT.

And the “Survival (%/NT)” value (Jurkat)?
Its value is 68.4 %/NT.

And the “Survival (%/NT)” value (HCT116)?
The value was 82.9 %/NT.

— patent US10563197B2, “Use of a combination of Dbait molecule and PARP inhibitors to treat cancer” (INSTITUT CURIE, priority 2015, dated 2020)
